# Patent US20040038950A1, “Pharmaceutical composition for treating IL-1 related diseases or disorders” (priority 2002, published 2004)
# Tests used:
# type I collagen mRNA = assay: RT-PCR of type I collagen mRNA in chondrocytes; assay type: cell-based, human; conditions: 100 μM
# Protocol: Chondrocytes were isolated from the knee joint of patient undergoing a knee replacement due to osteoarthritis. Cartilage was digested with 0.2% protease Type XIV (Sigma) for 1 hour, followed by 3-hour incubation with 0.2% collagenase Type IA (Sigma) at 37° C. Following the incubation, the undigested cartilage fragments were removed using a 70 μm Nylon sieve. Chondrocytes were washed with DPBS and maintained in monolayer culture for 7 days in Dulbecco's modified Eagle's medium (DMEM; Life Technologies Inc.) which contained 10% fetal bovine serum (FBS; Life Technologies), 100 units/ml penicillin-streptomycin (Life Technologies) and 25 μg/ml L-ascorbic acid (Sigma). All experiments were performed with primary or first passage cells. The preparation of chondrocytes in alginate beads was carried out with 4×10^6 cells per 1 ml of alginate. Alginate cultures were maintained for 7 days at 37° C., 5% CO2 and 95% humidity and incubated with various concentrations of DHEA (0, 10, 50 or 100 μM) for a varing period of time. DHEA was purchased from Sigma and used after dissolving either in ethanol or dimethyl sulfoxide (DMSO). After a desired incubation period, cells were harvested by solubilizing the alginate beads in citrate buffer (55 mM sodium citrate, 0.15 M NaCl, pH 7.0) for 10 min at 37° C. and by centrifugation (300 g, 5 min).
# Total RNA from chondrocytes was extracted using RNeasy Mini Kit (QIAGEN). Reverse transcription from 1 μg of total RNA was conducted using First Strand cDNA Synthesis Kit (MBI Fermentas) according to manufacturer's recommendation with random hexamers. […] All reactions were determined to be in the linear range of amplification with the cycle number ranging from 14 to 30. The PCR products were analyzed by separation on a 2% agarose gel followed by ethidium bromide staining. Following electrophoresis, photographs were taken and analyzed using a densitometric program (TINA; Raytest Isotopenmeβgerate, Germany). […] After normalizing with respect to GAPDH, percentage increase or decrease was determined. […]
# [1] = system: (IL-1β)-induced MMP-3 mRNA; assay: (IL-1β)-induced MMP-3 mRNA expression in chondrocytes, RT-PCR; assay type: cell-based, human; conditions: 100 μM DHEA with IL-1β, 72 hr
# Protocol: Sixteen hours prior to a treatment, the complete culture medium was replaced with a serum-free medium. Chondrocyte alginate bead cultures were then treated with IL-1β ([…], (Calbiochem) and DHEA (0, 10, 50 or 100 μM) for 3 days.
# Total RNA from chondrocytes was extracted using RNeasy Mini Kit (QIAGEN). Reverse transcription from 1 μg of total RNA was conducted using First Strand cDNA Synthesis Kit (MBI Fermentas) according to manufacturer's recommendation with random hexamers. The resulting cDNA was then amplified by polymerase chain reaction using AccuPower PCR Premix (Bioneer, Korea) in a final volume of 20 μl using three thermocycler temperatures (30 sec at […], 30 sec at 60° C., and 30 sec at […]). All reactions were determined to be in the linear range of amplification with the cycle number ranging from 14 to 30. The PCR products were analyzed by separation on a 2% agarose gel followed by ethidium bromide staining. Following electrophoresis, photographs were taken and analyzed using a densitometric program (TINA; Raytest Isotopenmeβgerate, Germany). Integrated density values for the genes in question were then normalized to the glyceraldehyde-3-phosphate dehydrogenase (GAPDH) values for a semiquantitative assessment. After normalizing with respect to GAPDH, percentage increase or decrease was determined. Each experiment was repeated at least three times. […]
# TIMP-1 mRNA = assay: Osteoarthritic rabbit model (ACLT), intraarticular injection, RT-PCR of TIMP-1; assay type: in vivo; conditions: rabbit ACLT knee, intraarticular once a week for 5 weeks
# Protocol: Mature New Zealand White rabbits underwent bilateral anterior cruciate ligament transection (ACLT). ACLT was performed using a medial arthrotomy method. Postoperatively the animals were permitted cage (60 cm×60 cm×40 cm) activity without immobilization. The right knees received via intraartiticular injection DHEA, DHEA-pyruvate or DHEA+HA, 4 weeks after ACLT and once a week for 5 weeks. The left knees received 0.3 ml of intraarticular injection with control solution (carrier solution). After 9 weeks from ACLT, the animas were sacrificed.
# Synovium (entire tissue) around the infrapatellar fat pads and cartilage tissue from the femoral condyle and the tibial plateau were harvested. The subsequent experimental procedure was the same as described in Test Example IV.
smiles,measurement,setting,value
"C[C@]12CC[C@H](O)CC1=CC[C@@H]1[C@@H]2CC[C@]2(C)C(=O)CC[C@@H]12 [DHEA, dehyroepiandrosterone]","type I collagen mRNA, maximal inhibition",type I collagen mRNA; 72 hours,28%
same,"type I collagen production, reduced by",type I collagen mRNA; after 24-72 hr of culture,less than 50%
same,type I collagen mRNA expression,type I collagen mRNA; after 72 hr,markly inhibited
same,"(IL-1β)-induced expression of MMP-3 mRNA, inhibition",[1],73%
same,expression of TIMP-1,TIMP-1 mRNA,increased
